Results: ChEMBL document CHEMBL1201862, “PubChem BioAssay data set” (2004)
Calls of active or inactive are those of the source.

Experiments:
[1] = enhancers of respiration in Yfh1-depleted yeast, dose response, Friedreich's ataxia, plus single-dose screen (AID 1465); type: functional;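 note: yeast depleted of Yfh1p frataxin homolog grown on glycerol needing respiration; WST-1 tetrazolium dye reduction as measure of cellular dehydrogenase metabolic activity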
Streptococcus = test: Luminescence Microorganism-Based Dose Response Follow up to Identify Compounds Cytotoxic to Streptococcus. [Related pubchem assays: 1677 (Project Summary), 1915, 1914, 1902 (Retest at Dose), 1900 (Counter Screen), 1662 (Primary HTS)]; type: functional, organism-based
[2] = target: Mothers against decapentaplegic homolog 3 (Homo sapiens, UniProt P84022); test: Smad3 binding inhibitors, lysate ELISA, dose response, cell lysate, secondary confirmation, chemiluminescent ELISA, HEK293 lysate (AID 1058); type: functional
Chain of Mothers against decapentaplegic homolog 3 (P84022 whole entry): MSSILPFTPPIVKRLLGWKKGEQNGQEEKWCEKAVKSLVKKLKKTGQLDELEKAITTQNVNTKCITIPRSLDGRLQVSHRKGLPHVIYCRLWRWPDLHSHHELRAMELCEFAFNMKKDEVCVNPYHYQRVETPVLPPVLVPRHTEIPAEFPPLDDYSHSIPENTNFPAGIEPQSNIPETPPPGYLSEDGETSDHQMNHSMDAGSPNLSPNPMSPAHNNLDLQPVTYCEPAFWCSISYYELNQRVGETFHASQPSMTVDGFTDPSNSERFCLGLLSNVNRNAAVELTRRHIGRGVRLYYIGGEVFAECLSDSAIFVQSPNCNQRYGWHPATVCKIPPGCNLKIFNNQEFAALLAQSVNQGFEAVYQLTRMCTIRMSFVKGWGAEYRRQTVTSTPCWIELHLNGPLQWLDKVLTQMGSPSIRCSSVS

Cytochrome P450 2C9 = Cytochrome P450 2C9 (Homo sapiens, UniProt P11712); settings: Potency
Chain of Cytochrome P450 2C9 (P11712 whole entry): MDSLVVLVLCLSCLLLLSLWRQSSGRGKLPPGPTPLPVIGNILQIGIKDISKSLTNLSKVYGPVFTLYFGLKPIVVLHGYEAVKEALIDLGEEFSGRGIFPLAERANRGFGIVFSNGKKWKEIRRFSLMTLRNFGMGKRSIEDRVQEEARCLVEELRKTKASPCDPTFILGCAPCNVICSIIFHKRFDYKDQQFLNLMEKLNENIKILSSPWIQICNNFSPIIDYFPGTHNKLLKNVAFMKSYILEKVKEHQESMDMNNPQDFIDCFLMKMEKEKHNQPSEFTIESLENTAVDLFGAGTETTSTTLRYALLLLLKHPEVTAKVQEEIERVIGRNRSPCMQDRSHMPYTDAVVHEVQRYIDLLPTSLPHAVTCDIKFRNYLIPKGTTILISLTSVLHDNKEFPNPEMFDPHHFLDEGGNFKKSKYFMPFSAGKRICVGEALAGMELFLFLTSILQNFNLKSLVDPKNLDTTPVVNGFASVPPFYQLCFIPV

Cytochrome P450 2D6 = Cytochrome P450 2D6 (Homo sapiens, UniProt P10635); test: qHTS Assay for Inhibitors and Substrates of Cytochrome P450 2D6. [Related pubchem assays: 410 ]; type: ADME; settings: read-out: Potency
Chain of Cytochrome P450 2D6 (P10635 whole entry): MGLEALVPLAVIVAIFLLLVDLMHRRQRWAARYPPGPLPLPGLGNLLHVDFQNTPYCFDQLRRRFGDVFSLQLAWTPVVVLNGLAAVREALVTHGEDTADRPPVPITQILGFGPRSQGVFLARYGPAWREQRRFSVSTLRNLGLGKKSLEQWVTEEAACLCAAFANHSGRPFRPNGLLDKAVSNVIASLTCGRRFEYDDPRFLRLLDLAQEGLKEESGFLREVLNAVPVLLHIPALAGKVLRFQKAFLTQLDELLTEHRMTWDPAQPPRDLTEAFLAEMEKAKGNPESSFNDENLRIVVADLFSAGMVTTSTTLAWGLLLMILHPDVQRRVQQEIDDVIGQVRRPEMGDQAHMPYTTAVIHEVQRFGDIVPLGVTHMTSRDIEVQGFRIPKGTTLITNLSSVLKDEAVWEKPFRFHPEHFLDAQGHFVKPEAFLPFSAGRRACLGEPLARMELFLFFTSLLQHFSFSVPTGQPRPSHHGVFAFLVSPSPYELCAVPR

[3] = target: T1, Dual specificity protein phosphatase 6 (Rattus norvegicus, UniProt Q64346)
T1 sequence (Q64346 whole entry): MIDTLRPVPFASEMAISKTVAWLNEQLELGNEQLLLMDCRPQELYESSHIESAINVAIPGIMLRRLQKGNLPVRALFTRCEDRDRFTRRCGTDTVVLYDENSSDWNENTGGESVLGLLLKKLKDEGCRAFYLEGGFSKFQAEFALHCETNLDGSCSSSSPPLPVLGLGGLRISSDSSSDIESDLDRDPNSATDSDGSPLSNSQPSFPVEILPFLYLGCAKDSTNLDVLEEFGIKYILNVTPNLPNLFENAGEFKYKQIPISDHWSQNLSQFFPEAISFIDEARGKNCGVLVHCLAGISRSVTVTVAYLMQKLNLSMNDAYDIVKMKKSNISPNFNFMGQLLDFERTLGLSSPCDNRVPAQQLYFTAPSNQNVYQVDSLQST

[4] = target: T1, Dual specificity protein phosphatase 6; type: functional
[5] = target: Glyceraldehyde-3-phosphate dehydrogenase (Homo sapiens, UniProt P04406)
Chain of Glyceraldehyde-3-phosphate dehydrogenase (P04406 whole entry): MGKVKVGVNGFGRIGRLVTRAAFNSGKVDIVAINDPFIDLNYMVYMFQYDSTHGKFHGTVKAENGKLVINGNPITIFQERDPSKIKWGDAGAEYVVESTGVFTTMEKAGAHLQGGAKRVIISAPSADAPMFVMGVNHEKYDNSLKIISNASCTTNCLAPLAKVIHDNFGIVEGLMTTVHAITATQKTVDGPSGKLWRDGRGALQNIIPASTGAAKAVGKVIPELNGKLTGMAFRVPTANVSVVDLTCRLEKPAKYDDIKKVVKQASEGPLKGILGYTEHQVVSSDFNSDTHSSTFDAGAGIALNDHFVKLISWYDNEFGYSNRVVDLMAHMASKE

[6] = target: Heat shock cognate 71 kDa protein (Homo sapiens, UniProt P11142); test: In Vitro Hsc70 Dose Response Fluorescence Polarization Assay. [Related pubchem assays: 1072 ]
[7] = target: T2, Tyrosine-protein phosphatase non-receptor type 7 (Homo sapiens, UniProt P35236); type: functional
T2 sequence (P35236 whole entry): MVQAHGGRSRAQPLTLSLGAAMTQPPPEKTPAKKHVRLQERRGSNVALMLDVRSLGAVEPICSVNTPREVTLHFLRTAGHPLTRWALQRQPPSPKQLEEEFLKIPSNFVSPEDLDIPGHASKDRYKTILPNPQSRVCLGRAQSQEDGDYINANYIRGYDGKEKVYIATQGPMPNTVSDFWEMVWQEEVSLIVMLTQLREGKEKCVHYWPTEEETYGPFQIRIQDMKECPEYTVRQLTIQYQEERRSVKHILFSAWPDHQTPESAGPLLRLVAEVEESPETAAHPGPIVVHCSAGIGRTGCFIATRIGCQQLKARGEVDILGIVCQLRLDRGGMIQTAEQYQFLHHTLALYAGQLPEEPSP

[8] = target: Heat shock 70 kDa protein 1A (Homo sapiens, UniProt P0DMV8); test: Hsp70 inhibitors, SAR follow-up, biochemical, fluorescence polarization (AID 1072)
[9] = C. albicans growth with fluconazole, confirmation, fluorescence, retest (AID 2467); type: functional, cell-based
[10] = microbe, parasite or virus in culture; type: functional; settings: Mycobacterium tuberculosis
[11] = HIV-1 Env-mediated cell fusion inhibitors, dose response, CCR5-tropic Env (AID 2279); type: functional
cells [12] = type: functional, cell-based
Nonstructural protein 1 = Nonstructural protein 1 (Influenza A virus, UniProt Q194T2); type: functional, Influenza A virus (A/California/07/2009(H1N1))
Chain of Nonstructural protein 1 (Q194T2 whole entry): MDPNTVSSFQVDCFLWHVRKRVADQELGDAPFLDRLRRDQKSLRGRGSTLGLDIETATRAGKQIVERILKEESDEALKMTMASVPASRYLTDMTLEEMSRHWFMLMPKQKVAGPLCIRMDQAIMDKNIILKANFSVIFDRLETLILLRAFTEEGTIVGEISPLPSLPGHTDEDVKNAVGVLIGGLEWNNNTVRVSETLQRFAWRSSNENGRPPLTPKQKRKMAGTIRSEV

[13] = NIH-3T3 fibroblast cytotoxicity, dose response, cytotoxicity control, cell-based, fluorescence, Alamar Blue, secondary assay (AID 2327); type: functional;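 note: NIH-3T3 mouse fibroblasts cultured with fluconazole at 8 µg/mL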
[14] = target: T3, Photoreceptor-specific nuclear receptor (Homo sapiens, UniProt Q9Y5X4); type: functional, cell-based
T3 sequence (Q9Y5X4 whole entry): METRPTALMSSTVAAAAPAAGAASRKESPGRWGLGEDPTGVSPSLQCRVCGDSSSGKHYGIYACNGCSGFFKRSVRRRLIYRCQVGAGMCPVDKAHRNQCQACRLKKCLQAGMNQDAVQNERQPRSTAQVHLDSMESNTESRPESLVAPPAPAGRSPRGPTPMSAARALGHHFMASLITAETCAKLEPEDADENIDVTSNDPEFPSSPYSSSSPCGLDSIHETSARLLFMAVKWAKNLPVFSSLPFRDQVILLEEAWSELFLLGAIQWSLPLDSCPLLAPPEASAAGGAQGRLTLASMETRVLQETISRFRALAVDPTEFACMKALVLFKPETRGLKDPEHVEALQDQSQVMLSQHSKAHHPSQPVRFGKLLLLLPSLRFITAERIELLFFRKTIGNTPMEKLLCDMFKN

INS1 = test: beta cell apoptosis inhibitors, cytokine rescue, dose response, luminescence, retest (AID 449756); type: functional, cell-based; settings: Rattus norvegicus;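 note: cell death triggered by IL-1 beta plus TNF-alpha plus IFN-gamma mixture; protective hits raise ATP signal compared with cytokine alone wells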
[15] = target: T4, Short transient receptor potential channel 4 (Mus musculus, UniProt Q9QUQ5); test: mouse TRPC4 channel inhibitors, dose response, cell-based, HEK293 TRPC4/mu-opioid, Fluo-4 calcium (AID 434942); type: functional;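 note: potency of inhibitors blocking the TRPC4 calcium response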
T4 sequence (Q9QUQ5 whole entry): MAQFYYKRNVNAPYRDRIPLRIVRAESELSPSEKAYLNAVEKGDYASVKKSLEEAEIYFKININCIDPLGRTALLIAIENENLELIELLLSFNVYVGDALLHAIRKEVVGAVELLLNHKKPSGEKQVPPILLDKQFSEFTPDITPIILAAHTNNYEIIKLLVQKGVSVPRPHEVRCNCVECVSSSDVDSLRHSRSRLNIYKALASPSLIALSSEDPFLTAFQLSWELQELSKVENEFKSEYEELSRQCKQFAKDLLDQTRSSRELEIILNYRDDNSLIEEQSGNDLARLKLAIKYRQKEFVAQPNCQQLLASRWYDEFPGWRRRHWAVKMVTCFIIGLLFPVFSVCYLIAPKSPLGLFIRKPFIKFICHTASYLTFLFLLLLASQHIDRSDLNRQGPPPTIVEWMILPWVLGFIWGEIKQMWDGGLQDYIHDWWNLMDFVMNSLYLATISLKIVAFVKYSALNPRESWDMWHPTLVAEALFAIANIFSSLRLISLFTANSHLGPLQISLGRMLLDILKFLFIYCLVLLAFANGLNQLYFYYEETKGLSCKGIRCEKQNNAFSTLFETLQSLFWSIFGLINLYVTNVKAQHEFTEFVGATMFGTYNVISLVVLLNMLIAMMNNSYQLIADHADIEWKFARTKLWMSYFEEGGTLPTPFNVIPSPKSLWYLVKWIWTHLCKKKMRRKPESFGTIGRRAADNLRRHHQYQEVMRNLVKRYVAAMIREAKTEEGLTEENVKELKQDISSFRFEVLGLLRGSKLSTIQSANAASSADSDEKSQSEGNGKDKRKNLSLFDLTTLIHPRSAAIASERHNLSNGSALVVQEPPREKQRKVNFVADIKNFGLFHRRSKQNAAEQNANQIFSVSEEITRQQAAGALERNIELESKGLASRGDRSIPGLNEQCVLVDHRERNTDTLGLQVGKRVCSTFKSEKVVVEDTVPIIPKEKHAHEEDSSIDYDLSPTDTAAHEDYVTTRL

cells [16] = type: functional, cell-based; remark: listed apart in the source
Estrogen receptor = target: T5, Estrogen receptor (Homo sapiens, UniProt P03372); test: ERα–SRC-3 coactivator interaction inhibitors, confirmation, orthogonal assay, biochemical, ELISA, streptavidin-HRP readout (AID 1079)
T5 sequence (P03372 whole entry): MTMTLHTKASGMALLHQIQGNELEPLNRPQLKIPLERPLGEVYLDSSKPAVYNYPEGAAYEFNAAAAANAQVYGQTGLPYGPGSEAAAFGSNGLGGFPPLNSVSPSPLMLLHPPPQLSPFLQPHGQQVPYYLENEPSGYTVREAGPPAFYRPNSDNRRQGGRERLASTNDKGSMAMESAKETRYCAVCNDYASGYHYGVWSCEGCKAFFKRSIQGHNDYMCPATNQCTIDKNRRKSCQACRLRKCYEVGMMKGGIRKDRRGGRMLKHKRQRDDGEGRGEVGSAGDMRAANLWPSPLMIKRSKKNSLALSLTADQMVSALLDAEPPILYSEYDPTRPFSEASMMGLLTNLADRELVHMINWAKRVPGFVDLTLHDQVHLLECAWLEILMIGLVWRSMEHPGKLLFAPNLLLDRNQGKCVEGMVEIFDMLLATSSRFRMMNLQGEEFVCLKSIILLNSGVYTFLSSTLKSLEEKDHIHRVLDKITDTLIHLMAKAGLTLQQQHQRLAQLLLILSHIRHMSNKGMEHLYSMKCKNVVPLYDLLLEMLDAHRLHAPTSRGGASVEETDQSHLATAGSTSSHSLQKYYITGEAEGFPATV

[17] = target: T6, Eukaryotic translation initiation factor 2-alpha kinase 3 (Homo sapiens, UniProt Q9NZJ5); test: Dose response cell-based high-throughput screening assay to measure PERK inhibition. [Related pubchem assays: 1416 ]; type: functional
T6 sequence (Q9NZJ5 whole entry): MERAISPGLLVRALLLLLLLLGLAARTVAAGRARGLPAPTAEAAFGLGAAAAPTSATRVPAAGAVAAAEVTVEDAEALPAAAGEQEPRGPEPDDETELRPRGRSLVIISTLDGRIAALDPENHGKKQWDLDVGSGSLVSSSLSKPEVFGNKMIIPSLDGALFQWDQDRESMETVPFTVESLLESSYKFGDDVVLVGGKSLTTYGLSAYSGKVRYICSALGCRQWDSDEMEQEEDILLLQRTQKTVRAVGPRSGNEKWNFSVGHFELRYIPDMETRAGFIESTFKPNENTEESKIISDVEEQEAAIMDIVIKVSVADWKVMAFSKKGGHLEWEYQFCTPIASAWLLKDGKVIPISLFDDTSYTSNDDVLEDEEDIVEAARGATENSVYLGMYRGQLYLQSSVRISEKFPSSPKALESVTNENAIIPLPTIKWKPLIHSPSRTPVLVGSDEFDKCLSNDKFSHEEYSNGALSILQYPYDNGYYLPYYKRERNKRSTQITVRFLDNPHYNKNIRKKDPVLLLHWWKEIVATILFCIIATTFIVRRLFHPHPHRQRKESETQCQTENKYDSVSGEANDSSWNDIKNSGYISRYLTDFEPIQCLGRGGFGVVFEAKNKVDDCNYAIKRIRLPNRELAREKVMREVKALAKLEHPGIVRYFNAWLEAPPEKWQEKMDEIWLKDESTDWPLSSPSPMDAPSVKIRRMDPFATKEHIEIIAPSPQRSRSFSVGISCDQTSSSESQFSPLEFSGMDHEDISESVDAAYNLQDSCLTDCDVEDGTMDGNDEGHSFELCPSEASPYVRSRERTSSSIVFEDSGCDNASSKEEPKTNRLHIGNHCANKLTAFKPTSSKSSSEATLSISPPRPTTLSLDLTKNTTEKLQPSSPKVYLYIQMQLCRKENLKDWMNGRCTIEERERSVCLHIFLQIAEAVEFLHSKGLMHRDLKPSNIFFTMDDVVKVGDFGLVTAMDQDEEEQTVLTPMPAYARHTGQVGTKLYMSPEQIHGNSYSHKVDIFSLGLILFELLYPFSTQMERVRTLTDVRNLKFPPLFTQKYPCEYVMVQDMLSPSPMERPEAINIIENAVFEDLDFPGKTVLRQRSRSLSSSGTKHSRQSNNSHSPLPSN

[18] = target: T6, Eukaryotic translation initiation factor 2-alpha kinase 3; test: Counterscreen assay for PERK inhibitors: Dose response cell-based high throughput screening assay to measure inhibition of PERK at 6 hours. [Related pubchem assays: 1522, 1416 ]; type: functional
[19] = target: Lysosomal acid glucosylceramidase (Homo sapiens, UniProt P04062); test: Dose response cell-based high throughput screening assay to identify enhancers of beta-glucosidase activity. [Related pubchem assays: 784 ]; type: functional
Chain of Lysosomal acid glucosylceramidase (P04062 whole entry): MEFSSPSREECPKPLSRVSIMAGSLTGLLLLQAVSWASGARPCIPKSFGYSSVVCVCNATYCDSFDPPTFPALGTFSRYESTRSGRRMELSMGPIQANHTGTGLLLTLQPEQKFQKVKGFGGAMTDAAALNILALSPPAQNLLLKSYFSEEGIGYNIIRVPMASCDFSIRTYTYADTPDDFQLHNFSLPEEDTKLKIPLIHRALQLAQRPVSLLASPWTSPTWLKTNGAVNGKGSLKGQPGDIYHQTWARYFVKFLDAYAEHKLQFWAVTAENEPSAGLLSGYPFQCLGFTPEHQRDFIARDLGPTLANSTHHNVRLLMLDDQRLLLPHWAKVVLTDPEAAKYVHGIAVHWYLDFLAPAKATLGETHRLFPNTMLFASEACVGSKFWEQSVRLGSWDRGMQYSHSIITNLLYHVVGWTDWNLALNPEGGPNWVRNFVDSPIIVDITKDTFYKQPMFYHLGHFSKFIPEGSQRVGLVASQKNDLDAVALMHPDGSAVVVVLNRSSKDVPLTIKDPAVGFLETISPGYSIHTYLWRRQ

[20] = target: Peroxisome proliferator-activated receptor gamma/Nuclear receptor corepressor 2 (Homo sapiens, UniProt P37231+Q9Y618); type: functional
[21] = target: T3, Photoreceptor-specific nuclear receptor; type: functional
[22] = target: Serine/threonine-protein phosphatase (Homo sapiens, UniProt Q9BPW0); test: Counterscreen for inhibitors of PP1: fluorescence-based biochemical high throughput dose response assay to identify inhibitors of Protein Phosphatase 5 (PP5). [Related pubchem assays: 2034 (Summary (PP5 inhibitors)), 1987 (PP5 inhibitors in singlate), 2235 (PP1 inhibitors in singlate)]
[23] = growth suppression of beta-catenin-knockout colon cells, dose response, cell-based, HCT116, human colon tumor (AID 1045); type: functional;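 note: HCT116 colon tumor cells with beta catenin knocked out; cells exposed to compound for 60 hours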
[24] = target: Serine/threonine-protein phosphatase PP1-alpha catalytic subunit (Homo sapiens, UniProt P62136); test: PP1 phosphatase inhibitors, dose response, biochemical, fluorescence (AID 2403);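 note: phosphatase turnover of OMFP into fluorescent 3-O-methylfluorescein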
Chain of Serine/threonine-protein phosphatase PP1-alpha catalytic subunit (P62136 whole entry): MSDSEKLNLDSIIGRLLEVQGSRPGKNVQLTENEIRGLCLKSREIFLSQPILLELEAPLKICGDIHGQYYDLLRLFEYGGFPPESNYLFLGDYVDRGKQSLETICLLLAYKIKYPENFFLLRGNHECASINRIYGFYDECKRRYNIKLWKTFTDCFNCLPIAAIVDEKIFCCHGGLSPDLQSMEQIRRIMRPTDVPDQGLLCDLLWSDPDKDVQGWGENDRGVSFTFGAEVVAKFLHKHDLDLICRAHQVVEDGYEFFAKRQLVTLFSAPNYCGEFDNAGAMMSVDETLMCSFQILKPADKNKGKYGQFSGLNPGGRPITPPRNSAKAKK

[25] = growth suppression of PTEN-null colon cells, dose response, cell-based, HCT116 PTEN knockout (AID 1047); type: functional;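 note: HCT116 colon tumor cells with PTEN knocked out; cells exposed to compound for 60 hours before readout; potency for loss of cell viability measured by luminescence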
[26] = target: 5-hydroxytryptamine receptor 1E (Homo sapiens, UniProt P28566); test: Counterscreen assay for S1P3 antagonists: Dose response cell-based high throughput screening assay to identify antagonists of the 5-Hydroxytryptamine Receptor Subtype 1E (5HT1E). [Related pubchem assays: 1429, 485 ]; type: functional
Chain of 5-hydroxytryptamine receptor 1E (P28566 whole entry): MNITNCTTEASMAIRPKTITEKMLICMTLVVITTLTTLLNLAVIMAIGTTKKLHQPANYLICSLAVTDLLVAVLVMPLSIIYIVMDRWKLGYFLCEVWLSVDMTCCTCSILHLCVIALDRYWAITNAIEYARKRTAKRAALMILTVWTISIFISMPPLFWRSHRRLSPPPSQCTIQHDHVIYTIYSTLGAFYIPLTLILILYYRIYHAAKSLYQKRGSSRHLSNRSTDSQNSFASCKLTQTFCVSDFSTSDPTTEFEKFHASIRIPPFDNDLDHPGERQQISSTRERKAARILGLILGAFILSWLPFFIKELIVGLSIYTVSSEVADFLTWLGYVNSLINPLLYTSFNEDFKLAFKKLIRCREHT

[27] = target: Sphingosine 1-phosphate receptor 3 (Homo sapiens, UniProt Q99500); test: Dose response cell-based high throughput screening assay for antagonists of the Sphingosine 1-Phosphate Receptor 3 (S1P3). [Related pubchem assays: 1429, 485 ]; type: functional
[28] = target: Sphingosine 1-phosphate receptor 2 (Homo sapiens, UniProt O95136); test: Dose Response Cell Based Assay for Agonists of the S1P2 Receptor of Purchased Analogues. [Related pubchem assays: 729, 843, 854, 736 ]; type: functional

Structure (SMILES): COc1cccc(N/N=C2\C(=O)Nn3c2nc2c(c3=O)CCC2)c1
- EC50 [1]: > 100 µM (active)

Structure (SMILES): O=C(CSc1ccncc1)N1c2ccccc2Sc2ccccc21
- EC50 (Streptococcus): > 500 µM (not active)

Structure (SMILES): Oc1cc2c(cc1C(c1ccc3c(c1)OCO3)N1CCOCC1)OCO2 (centres undefined)
- IC50 [2]: > 40 µM (not active)

Structure (SMILES): CN(C)c1ccc(C(=C2C=CC(=[N+](C)C)C=C2)c2c(O)c(S(=O)(=O)[O-])cc3cc(S(=O)(=O)O)ccc23)cc1
- AC50 (Cytochrome P450 2C9): 2.51 µM (inconclusive)
- AC50 (Cytochrome P450 2D6): 3.16 µM (inconclusive)

Structure (SMILES): O=C(O)C1Nc2ccc([N+](=O)[O-])cc2C2C=CCC12 (centres undefined)
- IC50 [3]: 52 µM (active)
- IC50 [4]: 47.5 µM (active)
- IC50 [5]: 97.4 µM (active)
- IC50 [6]: 48.4 µM (active)
- IC50 [7]: 7.58 µM (active)
- IC50 [8]: 6.06 µM (active)

Structure (SMILES): Brc1ccc(N/N=C(/N=Nc2nn[nH]n2)c2ccccc2)cc1
- EC50 [9]: > 38 µM (not active)
- CC50 [10]: 7.7 µM (active)
- IC50 [11]: 9.87 µM (active)
- EC50 (cells [12]): 86.5 µM (active)
- IC50 (Nonstructural protein 1): 6 µM (active)
- EC50 [13]: 2.55 µM (inconclusive)
- IC50 [14]: 6.49 µM (active)
- AC50 (INS1): 1.77 µM (active)
- EC50 [15]: 7.5 µM (active)
- EC50 (cells [16]): 47.2 µM (active)

Structure (SMILES): O=C(CCCCCn1c(=S)[nH]c2ccccc2c1=O)N1CCN(c2ccc(C(F)(F)F)cc2)CC1
- IC50 (Estrogen receptor): 42.8 µM (not active)

Structure (SMILES): Cn1nc(C(F)(F)F)c(-c2ccccc2)c1NC(=O)CCC(=O)O
- EC50 [17]: > 55.7 µM (not active)
- EC50 [18]: > 55.7 µM (not active)

Structure (SMILES): CC1=C(C(=O)Nc2cccnc2)C(c2ccncc2)n2nnnc2N1 (centres undefined)
- EC50 [19]: > 50 µM (not active)

Structure (SMILES): CCNC(=S)Nc1nc2c(cc1C(=O)OCC)CCCC2
- IC50 [20]: 32.7 µM (not active)
- IC50 [21]: > 39.8 µM (not active)

Structure (SMILES): COc1ccc2c(Cl)c(C(=O)N/N=C/c3ccc4c(c3)OCO4)sc2c1
- IC50 [22]: > 67 µM (not active)
- EC50 [23]: 25.4 µM (active)
- IC50 [24]: 5.11 µM (active)
- EC50 [25]: 20.7 µM (active)

Structure (SMILES): Cc1ccc(NC(=O)C(OC(=O)c2ccc(F)cc2)c2ccccc2)cc1Cl (centres undefined)
- IC50 [26]: 15.6 µM (not active)
- IC50 [27]: 6.4 µM (active)

Structure (SMILES): Cc1cc(C(=O)COC(=O)C2CSC3(C)CCC(=O)N23)c(C)n1Cc1ccccc1 (centres undefined)
- EC50 [28]: > 30 µM (not active)
